Assay results reported in patent US20240130367A1, “PLANT GROWTH PROMOTERS” (University of Durham, priority 2020, published 2024).
Where a name gives a salt, the structure may show the parent alone.

Test system: Arabidopsis thaliana wild-type
Assay: Hypocotyl growth assay under reduced light
Type: in vivo
Details: hypocotyl, 100 μM; for New length (cm) / New Length: three days; for New length (cm): trials 1, 2, 3 and SAM each with own DMSO control; for New Length: in cm
Excerpt: Arabidopsis thaliana wild-type seeds were from laboratory stocks of Columbia (Col-0) and Landsberg erecta (Ler-0) accessions. Arabidopsis thaliana is a dicot. The mutants of gid1 (J. Griffiths, et al., Plant Cell, 2006, 18, 3399-3414) were obtained from Dr. Steve Thomas (Rothamsted Research, UK) and were in a Col-0 background, whilst the della quintuple mutant (S. H. Feng et al. Nature, 2008, 451: 475-479) and ga1-5 (I. Fridborg et al. Plant Cell, 1999, 11: 1019-1031) were in a Ler-0 background and was obtained from the Nottingham Arabidopsis Stock Centre (NASC). The A. thaliana line expressing RGA-GFP (A. L. Silverstone et al. The Plant Cell, 2001, 13: 1555-1565), Col-0 background was obtained from Prof. Keith Lindsey (Durham University, UK). Seeds were plated out 1×MS medium pH 5.8 (T. Murashige and F. Skoog (1962) Physiologia Plantarum 15: 473-497) in petri dishes with a concentration of either 0.8% or 1.2% (w/v) phytoagar for root and hypocotyl measurements, respectively. After sowing seeds were stratified on plates at 4° C. for a minimum of 48 h to achieve synchronous germination. Seedlings were grown for either 7 or 2 days for root and hypocotyl measurements, respectively, prior to treatment with chemicals. For hypocotyl measurements, seeds were sown on nylon mesh (acid resistant monofilament nylon filter mesh fabric; GZ, model number H20M). Seedling were grown in a Percival (CU-36L5D, CLF plant climatics, Emersacker, Germany) with a photoperiod of 16/8 h with a light intensity of either 150 μmol m^2 s^−1 or 50 μmol m^2 s^−1 for root and hypocotyl measurements, respectively, and a temperature of 20±1° C.
After growing as described above seedlings for root assays were transferred to 1.2% (w/v) agar plates containing each chemical at a final concentration of 100 μM (the addition of the chemicals was performed when media had cooled to 50° C. after autoclaving), with an equivalent concentration of DMSO as control. At this stage the positions of the root tips were marked on the petri dish. The plants were subsequently grown vertically and after a further 5 days images of the plates were scanned and the root growth that occurred during the 5 days on chemicals was measured using ImageJ software. 18 seedlings were measured for each treatment. For hypocotyl measurements the assay performed was adapted from de Lucas et al. (2008, supra). After growing seedlings as described above, the nylon mesh was transferred across to the plates containing chemical. The plants were then placed in vertical orientation for three days under reduced light intensity (by covering plates with 2 layers of 80 g·m^2 white paper) before the plates were scanned. The measurement of hypocotyl was done using ImageJ software. At least 15 seedlings were measured for each plate.
To determine the mechanism of A1 action via the GA/DELLA signaling pathway, the response of A1 in a series of GA synthesis/signalling mutants was investigated. For these assays the focus was on hypocotyl growth, because it is well established that DELLA can inhibit the binding of PIFs to their target promoter leading to a reduction in GA-regulated hypocotyl growth (A. Castillon, H. Shen and E. Huq (2007) Trends in Plant Science, 12: 514-521.; de Lucas et al. 2008, supra; S. H. Feng et al. 2008, supra. To establish the use of A1 in this assay, hypocotyl growth was first tested by growing the seedlings on agar plates containing A1, with GA and PAC used as positive and negative controls, respectively, for three days in reduced light conditions to achieve a balance between maximum and minimum hypocotyl growth. […] Having established the hypocotyl assay, DELLA-dependence of the A1 effect was then confirmed genetically. To test this, a mutant line that lacks all DELLA (GAI, RGA, RGL1, RGL2 and RGL3) function was used.
The effect of additional compounds on hypocotyl growth was investigated using the same methods as described above (100 μM of each compound was used). […]

[1] = relative to the DMSO control of the same trial

| Compound | New length (cm) | Relative growth (cm) [1] | New Length | Relative growth (cm) (relative to DMSO control) |
| --- | --- | --- | --- | --- |
| NCCNS(=O)(=O)c1cccc2cccnc12 [JAR13, N-(2′-aminoethyl)quinoline-8-sulfonamide] | 0.212 | −0.09787 |  |  |
| Cl.NCCNS(=O)(=O)c1cccc2ncccc12 [JAR30, N-(2′-aminoethyl)-quinoline-5-sulfonamide Hydrogen Chloride] | 0.333 | 0.417 |  |  |
| Cl.NCCNS(=O)(=O)c1cccc2ccncc12 [JAR31, N-(2′-aminoethyl)isoquinoline-8-sulfonamide Hydrogen Chloride] | 0.274 | 0.166 |  |  |
| Cl.NCCNS(=O)(=O)c1cccc2cnccc12 [JAR32, N-(2′-aminoethyl)isoquinoline-5-sulfonamide Hydrogen Chloride] | 0.202 |  |  |  |
| COc1ccc(S(=O)(=O)NCCN)c2ccccc12.Cl [JAR33, N-(2′-aminoethyl)-4-methoxynaphthalene-1-sulfonamide Hydrogen Chloride] | 0.2986 | 0.2705 |  |  |
| COc1ccc2ccccc2c1S(=O)(=O)NCCN.Cl [JAR36, N-(2′-aminoethyl)-2-methoxynaphthalene-1-sulfonamide Hydrogen Chloride] | 0.329 | 0.4 |  |  |
| Cl.NCCNS(=O)(=O)c1ccc2c3c(cccc13)C(=O)N2 [JAR67, N-(2′-aminoethyl)-1,8-naphtholactam-5-sulfonamide Hydrogen Chloride] | 0.187 | −0.2241 |  |  |
| CCCCCOc1ccc2ccccc2c1S(=O)(=O)NCCN.Cl [JAR68, N-(2′-aminoethyl)-2-pentoxynaphthalene-1-sulfonamide Hydrogen Chloride] | 0.197 | −0.1826 |  |  |
| COc1ccccc1S(=O)(=O)NCCN.Cl [JAR69, N-(2′-aminoethyl)-2-methoxybenzene-1-sulfonamide Hydrogen Chloride] | 0.316 | 0.3112 |  |  |
| CCCCCOc1ccc(S(=O)(=O)NCCN)c2ccccc12.Cl [JAR70, N-(2′-aminoethyl)-4-pentoxynaphthalene-1-sulfonamide Hydrogen Chloride] | 0.173 | −0.2822 |  |  |
| COc1ccc(S(=O)(=O)NCCN)cc1.Cl [JAR71, N-(2′-aminoethyl)-4-methoxybenzene-1-sulfonamide Hydrogen Chloride] | 0.331 | 0.3734 |  |  |
| CCCCCCOc1ccc(S(=O)(=O)NCCN)cc1.Cl [JAR72, N-(2′-aminoethyl)-4-hexoxybenzene-1-sulfonamide Hydrogen Chloride] | 0.195 | −0.1909 |  |  |
| CCCCCCOc1ccccc1S(=O)(=O)NCCN.Cl [JAR73, N-(2′-aminoethyl)-2-hexoxybenzene-1-sulfonamide Hydrogen Chloride] | 0.202 | −0.1618 |  |  |
| O=S(=O)(NCCO)c1cccc2ccccc12 [JAR88, N-(2-hydroxyethyl)naphthalene-1-sulfonamide] | 0.2827 | −0.2975 |  |  |
| CCOCCOc1c(Cl)cc(S(=O)(=O)NCCN)c2ccccc12.Cl [JAR141, N-(2-azaniumylethyl)-3-chloro-4-(2-ethoxyethoxy)naphthalene-1-sulfonamide Chloride] | 0.4387 | 0.09026 |  |  |
| Cc1ccc(S(=O)(=O)NCCN)cc1.Cl [JAR142, 4-methyl-N-(2′-aminoethyl)benzene-1-sulfonamide Hydrogen Chloride] | 0.5868 | 0.4584 |  |  |
| CNc1ccc(S(=O)(=O)NCCN)c2nonc12.Cl [JAR143, 7-(methylamino)-N-(2′-aminoethyl)-2,1,3-benzoxadiazole-4-sulfonamide Hydrogen Chloride] | 0.2847 | −0.2925 |  |  |
| CCOCCOc1ccc2ccccc2c1S(=O)(=O)NCCN.Cl [JAR144, N-(2′-aminoethyl)-2-(2″-ethoxyethoxy)naphthalene-1-sulfonamide Hydrogen Chloride] | 0.6007 | 0.4927 |  |  |
| CCOCCOc1ccc(S(=O)(=O)NCCN)c2ccccc12.Cl [JAR145, N-(2′-aminoethyl)-4-(2″-ethoxyethoxy)naphthalene-1-sulfonamide Hydrogen Chloride] | 0.6424 | 0.5965 |  |  |
| NCCNS(=O)(=O)c1cccc(F)c1 [JAR478, N-(2-aminoethyl)-3-fluorobenzene-1-sulfonamide Hydrochloride] |  |  | 0.8424 | 0.2289 |
| Cl.NCCNS(=O)(=O)c1ccc(-c2ccccc2)cc1 [JAR479, N-(2′-aminoethyl)-[1,1″-biphenyl]-4-sulfonamide Hydrochloride] |  |  | 0.7771 | 0.1335 |
| NCCNS(=O)(=O)c1ccccc1F [JAR480, N-(2′-aminoethyl)-2-fluorobenzene-1-sulfonamide Hydrochloride] |  |  | 0.8424 | 0.2289 |
| NCCCNS(=O)(=O)c1cccc2ccccc12 [JAR481, N-(3′-aminopropyl)naphthalene-1-sulfonamide Hydrochloride] |  |  | 0.8072 | 0.1775 |
| NCCNS(=O)(=O)c1cccc2c(Cl)cccc12 [JAR482, N-(2′-aminoethyl)-5-chloronaphthalene-1-sulfonamide Hydrochloride] |  |  | 0.5888 |  |
| NCCNS(=O)(=O)c1ccc([N+](=O)[O-])cc1 [JAR483, N-(2′-aminoethyl)-4-nitrobenzene-1-sulfonamide Hydrochloride] |  |  | 0.8707 | 0.2701 |
| CC(C)(C)c1ccc(S(=O)(=O)NCCN)cc1 [JAR484, N-(2′-aminoethyl)-4-tent-butylbenzene-1-sulfonamide Hydrochloride] |  |  | 0.8713 | 0.271 |
| Cl.NCCNS(=O)(=O)C1CCCCC1 [JAR488, N-(2′-aminoethyl)cyclohexanesulfonamide Hydrochloride] |  |  | 0.668 | −0.02555 |
| CCCc1ccc(S(=O)(=O)NCCN)cc1 [JAR489, N-(2-aminoethyl)-4-propylbenzene-1-sulfonamide] |  |  | 0.9133 | 0.3323 |
| COc1cccc(S(=O)(=O)NCCN)c1.Cl [JAR490, N-(2′-aminoethyl)-3-methoxybenzene-1-sulfonamide Hydrochloride] |  |  | 0.8299 | 0.2107 |
